How the values were obtained:
death induced by 48/80 = test: "In vivo" antihistaminic activity: protection from death induced by compound 48/80 in the rat; conditions: for ED50: ip, 4 h, i.p., rat, 48/80 0.5 mg/kg i.v. after 60 minutes, survival four hours after injection, read-out: ED-50 (dose capable of protecting 50% of the animals from death induced by 48/80)
Protocol: The antihistaminic activity was studied by determining the protection in the face of the mortality used by the product 48/80 in the rat. This test was performed in accordance with the technique described by C. J. E. Niemegeers et cols. (Arch. int. Pharmacodyn., 234, 164-176 (1978). The products according to the present invention are administered intra-peritonially to rats. After 60 minutes the compound 48/80 is administered (0.5 mg/kg, i.v.).
The protective activity is defined as the survival of the rats four hours after the i.v. injection of 48/80.
The activity of the products was studied at several doses in order to determine the dose capable of protecting 50% of the animals (ED-50).
"In vivo" antihistaminic activity Protection from death induced by 48/80

[1] = Sedative effect: potentiation of the sleep time induced by pentobarbital; conditions: for Potentiation of the sleep time induced by pentobarbital (in words): oral, example 5 up to 160 mg/kg, difenhidramine at 20 mg/kg; for Potentiation sleep time: sodium pentobarbital 35 mg/kg s.c. one hour later
Protocol: The study of the potentiation of the sleep time due to the pentobarbital was performed following the method described by L. E. Allen and cols. […] The products studied were administered orally. […] The sleep time was compared with a group of control animals, treated only with sodium pentobarbital.

[2] = Sedative action: Irwin Test (passivity, ataxia); conditions: for Atax. (ataxia, alterations of coordination in locomotion), evaluated between 0 and 3 / Pas. (passivity, sedation, prostation), evaluation between 0 and 3 / Effect: toxic: rat, i.p.; for Atax. (ataxia, alterations of coordination in locomotion), evaluated between 0 and 3 / Pas. (passivity, sedation, prostation), evaluation between 0 and 3: 1, 2 and 3 hours after treatment
Protocol: Pas.: Passivity, sedation, prostation. Quantitative evaluation between 0 and 3. They were performed 1, 2 and 3 hours after the treatment.
Atax.: Ataxia, the alterations of coordination in locomotion were evaluated. They were evaluated between 0 and 3. They were performed 1, 2 and 3 hours after the treatment.
Sedative action: 1) Irwin Test

SMILES	ED50 (death induced by 48/80)	Atax. (ataxia, alterations of coordination in locomotion), evaluated between 0 and 3 ([2]; 40 mg/kg)	Pas. (passivity, sedation, prostation), evaluation between 0 and 3 ([2]; 40 mg/kg)	Effect: toxic ([2]; 80 mg/kg)	Atax. (ataxia, alterations of coordination in locomotion), evaluated between 0 and 3 ([2]; 80 mg/kg)	Pas. (passivity, sedation, prostation), evaluation between 0 and 3 ([2]; 80 mg/kg)	also measured
CN(C)CCOC(c1ccccc1)c1ccccc1 [Difenhidramine, reference compound]	5.4 mg/kg	0.9	0				Potentiation of the sleep time induced by pentobarbital (in words) [1]: potentiates significantly the sleep time at the dose of 20 mg/kg
Brc1cnn(CCCCN2CCN(C(c3ccccc3)c3ccccc3)CC2)c1 [Example 1, 4-Bromo-1-[4-(4-diphenylmethyl-1-piperazinyl)butyl]pyrazole]	3.2 mg/kg	1.4	0.8	Toxic			Atax. (ataxia, alterations of coordination in locomotion), evaluated between 0 and 3 ([2]; 20 mg/kg): 1.2; Pas. (passivity, sedation, prostation), evaluation between 0 and 3 ([2]; 20 mg/kg): 0.8
Clc1cnn(CCCCN2CCN(C(c3ccccc3)c3ccccc3)CC2)c1 [Example 2, 4-Chloro-1-[4-(-4-diphenylmethyl-1-piperazinyl)butyl]pyrazole]	3 mg/kg	1.5	0.2	Tox.	0.4	0	
Brc1cnn(CCCN2CCN(C(c3ccccc3)c3ccccc3)CC2)c1 [Example 3, 4-Bromo-1-[3-(4-diphenylmethyl-1-piperazinyl)propyl]pyrazole]	10 mg/kg				0.7	0	
O=C(O)c1cnn(CCCCN2CCN(C(c3ccccc3)c3ccccc3)CC2)c1 [Example 4, 1-[4-(4-Diphenylmethyl-1-piperazinyl)butyl]-4-carboxy pyrazole]	0.62 mg/kg				1	0.9	Atax. (ataxia, alterations of coordination in locomotion), evaluated between 0 and 3 ([2]; 160 mg/kg): 1.6; Pas. (passivity, sedation, prostation), evaluation between 0 and 3 ([2]; 160 mg/kg): 1.2
Cc1cnn(CCCCN2CCN(C(c3ccccc3)c3ccccc3)CC2)c1 [Example 5, 1-4-[4-(-Diphenylmethyl-1-piperazinyl)butyl]-4-methyl pyrazole]	0.62 mg/kg				0.5	0.7	antihistaminic activity (in words) (death induced by 48/80; compared with difenhidramine): one of the most powerful of the products; Potentiation sleep time ([1]; 40 mg/kg p.o., N.S. (not significant)): 15%; Potentiation sleep time ([1]; 80 mg/kg p.o., N.S. (not significant)): 21%; Potentiation sleep time ([1]; 160 mg/kg p.o., * significant vs control (p < 0.05)): 33%; Potentiation of the sleep time induced by pentobarbital (in words) [1]: does not potentiate the sleep time induced by the pentobarbital except at the dose of 160 mg/kg; sedative action / side effects on the central nervous system (in words) ([2]; in words): less sedative action
c1ccc(C(c2ccccc2)N2CCN(CCCCn3ccnc3)CC2)cc1 [Example 6, 1-[4-(4-Diphenylmethyl-1-piperazinyl)butyl]imidazole]	2.5 mg/kg				0.3	1.3	
c1ccc(C(c2ccccc2)N2CCN(CCCCn3cncn3)CC2)cc1 [Example 7, 1-[4-(4-Diphenylmethyl-1-piperazinyl)butyl]-1,2,4,-triazole]	0.6 mg/kg			Toxic			
c1ccc(C(c2ccccc2)N2CCN(CCCCn3cccc3)CC2)cc1 [Example 8, 1-[4-(4-Diphenylmethyl-1-piperazinyl)butyl]pyrrole]	6.7 mg/kg						
